Test results: patent publication US12486227B2, “Small molecules for cancer therapy that reduce the expression of transcription factors KLF5 and EGR-1” (University of Florida Research Foundation, Incorporated, priority 2019, dated 2025)
Read-outs that look alike come from different tables or passages of the source.

Assays:
DLD-1 colon cancer cells = assay: MTT viability assay, DLD-1; type: cell-based; details: Homo sapiens
From the text: Specific Examples of compounds of the present disclosure have EC50 values estimated using a cell-based assay for binding to the KLF5 promoter and, in many cases, a follow-up viability assay (MTT) using DLD-1 colon cancer cells, a cell line known to highly express KLF5 and whose growth is adversely affected by the reduction of KLF5 levels. Assay protocols follow those described in the literature.^22,23 Other assays that are not described here but that are standard in the field may also be useful in establishing mechanism of action of these compounds.

[1] = test system: HCT-116 colorectal cancer cell line; assay: MTT growth assay, HCT-116; type: cell-based; details: Homo sapiens, Table 1
From the text: The observed activity is greater than that previously seen for ML264.

EGR-1 = assay: Western blot of EGR-1 protein levels in DLD-1 cells; type: cell-based, human; details: 1 μM and 10 μM, 24 h
Method: We have studied the effects of SR18662 upon lowering KLF5 levels in colon cancer cell lines. […] The levels of the protein EGR-1 are lowered as well. In this experiment the test compounds were at 1 μM and 10 μM, and protein levels were measured after 24 h. […] The study was also repeated using HCT-116 cells rather than DLD-1 cells, with similar results. These compounds appear to dose-dependently reduce levels of KLF5 and EGR-1 proteins.
(§1) Western blot analysis. Total protein was extracted from cells with Laemmli buffer and the analysis was performed as described previously (24).

[2] = test system: DLD-1 and HCT116 CRC cells; assay: Cell cycle analysis by flow cytometry (propidium iodide); type: cell-based, human; details: 10 μM, over three days, vs vehicle, ML264, SR15006
Method: SR18662 alters the cell cycle pattern of CRCs. […] We have also evaluated the impact of SR15006 and SR18662 on cell cycle progression. We treated DLD-1 and HCT116 CRC cells over the course of three days with vehicle or 1 μM or 10 μM of test compound and then analyzed cell cycle using flow cytometry.
Cell proliferation, cell cycle and apoptosis assays. For cell proliferation experiments, cell cycle, and apoptosis determination, DLD-1 and HCT116 cells were treated with 1 or 10 μM of each compound or with vehicle (DMSO). The cells were collected at 24, 48, and 72 h post-treatment and analyzed as previously described (24). Each experiment was performed in triplicate.

MAPK pathway = assay: Western blot of MAPK signaling pathway components; type: cell-based, human; details: DLD-1 and HCT116, 10 μM, 72 h
From the text: SR18662 negatively regulates MAPK and WNT signaling pathway and cyclin levels. Myriad publications have shown that in both in vitro and in vivo contexts KLF5 is regulated by MAPK and WNT signaling pathways and that KLF5, in turn, has the ability to modulate the activity of these pathways (14, 18, 26-32). We have previously shown that treatment of CRCs with ML264 results in decreased activity of both the MAPK and WNT signaling pathways (24). Because SR15006 and SRI8662 are structurally related to ML264, we decided to investigate their ability to alter the expression levels of the components of these pathways. Thus, we treated DLD-1 and HCT116 CRCs with DMSO (vehicle) and tested compounds at 1 μM or 10 μM, collecting the cells for western blot analysis at 24, 48, and 72 h. […] Similar effects were seen when both cell lines were treated these compounds at 1 μM. Furthermore, the inhibitory effects of SR18662 on the components of the MAPK signaling pathway we observed at earlier time points than were apparent following treatment with ML264 or SR15006.
as §1

DLD-1-derived xenografts = assay: Histology, immunofluorescence and immunohistochemistry of DLD-1-derived xenografts; type: in vivo, mouse
Method: SR18862 inhibits the growth of CRC xenografts in vivo. To evaluate SRI8662 in an in vivo model we used CRC cells for a mouse xenograft study. As described in more detail in the Examples section, nude mice were injected with DLD-1 CRC cells. Tumors were allowed to grow to an approximate size of 100 mm^3, and then mice were injected with vehicle or with varied concentrations of SR18662, given once a day or twice a day for five days, followed by two days without injection, and then followed by five days with injections. The experiment was completed the day after the last injection. […] Significant differences in tumor size are apparent at the end of the treatment schedule (FIG. 6B). To further characterize the impact of SR18662 on the features of isolated tumors, we compared vehicle-treated mice with mice that had been treated with SR18662 twice a day. […] Because SR18662 had induced cell apoptosis and death in the in vitro setting, we stained the xenografts with PanCK and TUNEL to estimate the levels of apoptosis in the in vivo context.
Immunofluorescence and immunohistochemistry. Tumors dissected from mice were first fixed in Bouin's fixative (50% ethanol+5% acetic acid in water) for 1 h, then fixed overnight in 10% buffered formalin (Fisher Scientific). The tissues were then paraffin-embedded using an automated processor, sectioned at 5 μm, collected onto charged slides and baked in a 65° C. oven overnight, and were subsequently deparaffinized in xylene. […]
Tissue sections were first incubated with blocking buffer (5% BSA in TBS-Tween) for 30 min at 37° C. and then with primary antibody at 4° C. overnight in a humidified chamber with gentle shaking. […] Slides were analyzed under a Nikon Eclipse 90i microscope (Nikon) and representative photomicrographs were taken. […]

[3] = test system: major human CYP450 liver enzymes; assay: Inhibition of human CYP450 liver enzymes; type: in vitro ADME
[4] = Oral bioavailability in mice; type: in vivo
[5] = 25 mg/kg twice per day vs vehicle

CS(=O)(=O)N1CCN(C(=O)CNC(=O)/C=C/c2ccc(Cl)c(Cl)c2)CC1 [Example 9, (E)-3-(3,4-dichlorophenyl)-N-(2-(4-(methylsulfonyl)piperazin-1-yl)-2-oxoethyl)acrylamide]
EC50 (DLD-1 colon cancer cells; MTT, Table 1, read-out: EC50 (nM) DLD-1): 1.7 nM | EC50 (DLD-1 colon cancer cells; Table 2, read-out: Approximate potency (EC50 · mol/L) (DLD1, MTT assay)): 1.68 nM | EC50 [1]: 22 nM | EGR-1 protein levels by Western blot (EGR-1): lowered | subG1 population [2]: significant increase in the number of cells within the subG1 population | expression levels of MAPK pathway components (MAPK pathway): negatively regulated the expression levels of the components of the MAPK pathway | expression levels of KLF5 and EGR1 in xenografts (DLD-1-derived xenografts; 25 mg/kg twice a day, immunohistochemistry): significantly decreased | TUNEL staining in xenografts (DLD-1-derived xenografts; [5]): increase of TUNEL staining | fibrosis (PanCK/Vimentin stain) in xenografts (DLD-1-derived xenografts; [5]): higher level of fibrosis | inhibition of major human CYP450 liver enzymes [3]: does not inhibit | oral bioavailability [4]: orally bioavailable
